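Following 48 hours of exposure in 96-well plates, responses at five concentrations were used to interpolate endpoints linearly. GI50 = concentration required for 50% inhibition of growth.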 Active and inactive are the calls of the source. Rule as the data show it: active = GI50 up to about 1.1 µM and inactive = higher.

Common to all, as to experiment: inhibition of tumour cell growth, NCI panel, 48 h
The subject of test [1] is SK-OV-3.
Test [2] has as its system SK-MEL-2.
In test [3] the test system is 786-0.
Test [4] deals with SF-268.
The test system of test [5] is EKVX.
The test system of test [6] is K562.
In test [7] the test system is Hs-578T.
The test system of test [8] is MDA-N.
In test [9] the test system is LOX IMVI.
Test [10] deals with SW-620.
The test system of test [11] is CCRF-CEM.
The subject of test [12] is MDA-MB-231.
Test [13] deals with SK-MEL-5.
Test [14] concerns ACHN.
Test [15] concerns NCI-H522.
The test system of test [16] is SR.
Test [17] relates to M14.
The test system of test [18] is RPMI-8226.
Test [19] relates to SF-295.

For the compound `Cc1cc(S(=O)(=O)Nc2nnc3c(C(F)(F)F)cc(Cl)cn23)c(S)cc1Cl`, the GI50 in test [1] is > 100 µM (inactive); in test [2], 64.4 µM (inactive); in test [3], > 100 µM (inactive); in test [4] it was > 100 µM (inactive); in test [5], > 100 µM (inactive); in test [6], > 100 µM (inactive). Moreover, the GI50 in test [7], in test [8], in [9], in [10], in test [11] and in test [12] was > 100 µM (inactive) throughout. The GI50 in test [13] is > 100 µM (inactive); in test [14], 48.2 µM (inactive); in test [15], > 100 µM (inactive); in test [16], 81.7 µM (inactive); in [17], 67.1 µM (inactive); in [18], > 100 µM (inactive).
`COc1cc(/C=C/C2=NN(c3cccc(S(=O)(=O)O)c3)C3(C2)C(Cl)C(=O)N3c2nc3ccccc3s2)ccc1O` (centres undefined): the GI50 in [2] is 39.7 µM (inactive); in [3], 17.4 µM (inactive); in [4], 23.8 µM (inactive); in test [5], 20.3 µM (inactive); in test [6] it was 20.8 µM (inactive); in [7], 50 µM (inactive). The GI50 was 25.2 µM (inactive) in [8]; 11.4 µM (inactive) in [9]; 21.1 µM (inactive) in [10]; 17.7 µM (inactive) in test [11]; 20.8 µM (inactive) in test [12]; 23.6 µM (inactive) in test [13]. Also, the GI50 is 16.7 µM (inactive) in [14]; 13.9 µM (inactive) in test [15]; 15.6 µM (inactive) in test [16]; 40.7 µM (inactive) in test [17]; 16.1 µM (inactive) in test [18].
In the case of `Cc1csc2c(=O)n(COCc3ccccc3)c(=O)[nH]c12`, the GI50 was > 100 µM (inactive) in test [3]; > 100 µM (inactive) in [19]; > 100 µM (inactive) in [4]; 66.2 µM (inactive) in [5]; > 100 µM (inactive) in test [6]; 65 µM (inactive) in [7]. Further, the GI50 in test [8] was > 100 µM (inactive); in [9], > 100 µM (inactive); in test [10] it was > 100 µM (inactive); in test [11] it was > 100 µM (inactive); in test [12] it was > 100 µM (inactive); in [13] it was 91.2 µM (inactive). In addition, the GI50 in test [14] is > 100 µM (inactive); in test [15] it was 94.8 µM (inactive); in test [16], > 100 µM (inactive); in test [17], > 100 µM (inactive); in [18], > 100 µM (inactive).
Take `CCOC(=O)CC1(N)CC2c3ccccc3OC(=O)C2C(=O)N1` (centres undefined): the GI50 in test [2], in test [3], in test [4], in test [5], in test [6] and in test [7] was > 100 µM (inactive) in each case. Further, the GI50 in [8], in test [9], in [10], in test [11], in [12] and in test [14] was > 100 µM (inactive) in each case. For the same compound, the GI50 in [15], in [16], in test [17] and in test [18] was > 100 µM (inactive) each time.
Consider `C=CCNC(=O)/C(Cc1cc(Br)c(OC)c(Br)c1O)=N\O`, for which the GI50 in [2] was 7.73 µM (inactive); in test [3], 2.61 µM (inactive); in [19], 3.64 µM (inactive); in test [4], 3.58 µM (inactive); in test [5], 3.81 µM (inactive); in test [6], 2.37 µM (inactive). Also, the GI50 in test [7] was 1.32 µM (inactive); in test [8], 0.334 µM (active); in [9], 5.68 µM (inactive); in test [10], 3.15 µM (inactive); in test [12], 6.73 µM (inactive); in [13], 1.78 µM (inactive). The GI50 in test [14] was 13.4 µM (inactive); in test [15], 1.78 µM (inactive); in test [16] it was 1.17 µM (inactive); in test [17] it was 4.22 µM (inactive); in test [18] it was 4.23 µM (inactive).
Turning to `O=C1NC(=O)C(COCc2ccccc2)C2=C1SCCC2` (centres undefined), the GI50 in test [2], in test [3], in test [19], in test [4], in test [5] and in test [6] was > 100 µM (inactive) in each case. For the same compound, the GI50 in test [7], in [8], in test [9], in test [10], in test [11] and in test [12] was > 100 µM (inactive) throughout. For the same compound, the GI50 in test [13], in [14], in [15], in [16], in test [17] and in test [18] was > 100 µM (inactive) each time.
As to `C/C(=N\O)c1cccc(Nc2nc3ccccc3c3occc23)c1`, the GI50 in test [1] is 15 µM (inactive); in test [3], 12.7 µM (inactive); in [19], 8.83 µM (inactive); in test [4], 11.9 µM (inactive); in test [5], 12.7 µM (inactive); in test [6], 7.85 µM (inactive). In addition, the GI50 in [7] is 12.1 µM (inactive); in test [8], 13.1 µM (inactive); in [9], 13.6 µM (inactive); in [11], 8.02 µM (inactive); in test [12] it was 11.9 µM (inactive); in [13], 13.6 µM (inactive). In addition, the GI50 in test [14] is 10.3 µM (inactive); in [16], 5.81 µM (inactive); in [17] it was 12.7 µM (inactive); in test [18], 7.06 µM (inactive).
Turning to `Cc1ccc(NC(=O)C23CC4CC(CC(C4)C2)C3)c(C(=O)NNC(=O)c2ccc(Cl)cc2)c1`, the GI50 in test [1] was 15.8 µM (inactive); in test [3], 20.2 µM (inactive); in [19], 22.9 µM (inactive); in [4], 23.8 µM (inactive); in test [5], 18.5 µM (inactive); in test [6], 28.6 µM (inactive). Moreover, the GI50 in [7] is 4.3 µM (inactive); in [8] it was 20.2 µM (inactive); in test [9], 17 µM (inactive); in [10], 26.2 µM (inactive); in [11] it was 21.1 µM (inactive); in test [12] it was 15.5 µM (inactive). Besides, the GI50 in [13] was 18.4 µM (inactive); in test [14] it was 17.5 µM (inactive); in [15] it was 12 µM (inactive); in test [16], 13.7 µM (inactive); in test [17], 31.8 µM (inactive); in [18] it was 19 µM (inactive).
As for `CC(=O)Oc1ccc2cc(Oc3ccc(Cl)c(Cl)c3)c(=O)oc2c1`, the GI50 in test [3] was 19.5 µM (inactive); in test [19], 38.1 µM (inactive); in [4] it was 34 µM (inactive); in [5], 24 µM (inactive); in test [6] it was 25.4 µM (inactive); in test [7], 33 µM (inactive). The GI50 in [8] is 25.9 µM (inactive); in [9], 19.7 µM (inactive); in test [10] it was 33.3 µM (inactive); in test [11] it was 18.3 µM (inactive); in test [12] it was 27 µM (inactive); in test [13] it was 20.3 µM (inactive). Further, the GI50 in [14] was 25.8 µM (inactive); in test [15] it was 21.2 µM (inactive); in [16], 35.3 µM (inactive); in test [17], 38.5 µM (inactive); in test [18], 20.4 µM (inactive).
As for `O=C(/C=C/c1cccc(Br)c1)c1cccs1`, the GI50 in [1] is 23.8 µM (inactive); in test [2], 17.7 µM (inactive); in [3], 15.8 µM (inactive); in [19] it was 16.6 µM (inactive); in test [4] it was 19.6 µM (inactive); in [5] it was 18.5 µM (inactive). Also, the GI50 in [6] was 3.13 µM (inactive); in test [7] it was 27.9 µM (inactive); in test [8], 10.3 µM (inactive); in [10] it was 9.35 µM (inactive); in [11] it was 4.23 µM (inactive); in test [12], 16.7 µM (inactive). Further, the GI50 is 16.9 µM (inactive) in [13]; 20.1 µM (inactive) in test [14]; 10.1 µM (inactive) in test [16]; 25.1 µM (inactive) in test [17]; 2.09 µM (inactive) in test [18].
As for `CC(=O)O[C@H]1C[C@H](O[C@H]2[C@@H](O)C[C@H](O[C@H]3[C@@H](O)C[C@H](O[C@H]4CC[C@@]5(C)[C@H](CC[C@@H]6[C@@H]5C[C@@H](O)[C@]5(C)[C@@H](C7=CC(=O)OC7)CC[C@]65O)C4)O[C@@H]3C)O[C@@H]2C)O[C@H](C)[C@H]1O[C@@H]1O[C@H](CO)[C@@H](O)[C@H](O)[C@H]1O` [LANATOSIDE C], the GI50 was 0.0597 µM (active) in test [1]; 0.165 µM (active) in [2]; 0.0322 µM (active) in [3]; 0.0426 µM (active) in [19]; 0.0436 µM (active) in [4]; 0.0284 µM (active) in [5]. The GI50 in test [6] was 0.04 µM (active); in test [7], 0.0252 µM (active); in test [8] it was 0.156 µM (active); in test [9] it was 0.042 µM (active); in [10] it was 0.0536 µM (active); in test [12] it was 0.372 µM (active). Further, the GI50 is 0.0465 µM (active) in test [13]; 0.0283 µM (active) in [14]; 0.0137 µM (active) in test [15]; 0.1 µM (active) in test [16]; 0.147 µM (active) in test [17]; 0.0368 µM (active) in test [18].

The record behind these values is ChEMBL document CHEMBL1201862, “PubChem BioAssay data set” (2004).
